According to the supplement of paper PMC10307832:

How the values were obtained:
Test in all cases: relative viability (nuclei count vs DMSO), 5 days (fraction); higher = more cells survive
[1] = compound: CS(=O)(=O)c1ccc(-c2cnc(N)c(C(=O)Nc3ccccc3)n2)cc1 [VE-821]
Method in brief: (§1)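 Lung cancer cell lines received five library-drug doses (not always all listed) spaced by √10, pinned on vehicle-anchored 1536-well plates after an overnight stay at 37 °C. Five days later, with no medium change, nuclei were Hoechst-stained, imaged at 4× and counted with MetaXpress. Viability is treated-well nuclei relative to vehicle-well nuclei, as a median across plates. Passing plates had control CV below 25% and at least one doubling.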

[2] = compound: CS(=O)(=O)c1ccc(C(=O)Nc2ccc(Cl)c(-c3ccccn3)c2)c(Cl)c1 [Vismodegib]
Method in brief: as §1

[3] = compound: N#CC[C@H](C1CCCC1)n1cc(-c2ncnc3[nH]ccc23)cn1 [Ruxolitinib]
Method in brief: as §1

[4] = compound: CS(=O)(=O)c1ccc(C(=O)Nc2ccc(Cl)c(-c3ccccn3)c2)c(Cl)c1 [Vismodegib] + C[C@@H](Oc1cc(-c2cnn(C3CCNCC3)c2)cnc1N)c1c(Cl)ccc(F)c1Cl [Crizotinib] (partner 1 µM)
Method in brief: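 After 5 days of treatment, lung cancer cells in 1536-well plates were fixed and stained in a single step (final 0.05% Triton X-100, 1% formaldehyde, 1 ug/ml Hoechst) and their nuclei counted on 4× images. Treatment had been applied by pin tool the day after seeding as one drug alone or as a fixed anchor-drug dose with five library-drug doses (not always all listed) in √10 steps. Relative viability is the nuclei count of treated wells divided by that of vehicle wells, and values are medians of duplicate plates.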

Cell Line	relative viability ([1]; 0.08 µM)	relative viability ([1]; 0.253 µM)	relative viability ([1]; 0.8 µM)	relative viability ([1]; 2.53 µM)	relative viability ([1]; 8 µM)	relative viability ([2]; 0.08 µM)	relative viability ([2]; 0.253 µM)	relative viability ([2]; 0.8 µM)	relative viability ([2]; 2.53 µM)	relative viability ([2]; 8 µM)	relative viability ([3]; 0.08 µM)	relative viability ([3]; 0.253 µM)	relative viability ([3]; 0.8 µM)	relative viability ([3]; 2.53 µM)	relative viability ([3]; 8 µM)	relative viability ([4]; first compound 0.08 µM)	relative viability ([4]; first compound 0.253 µM)	relative viability ([4]; first compound 0.8 µM)	relative viability ([4]; first compound 2.53 µM)	relative viability ([4]; first compound 8 µM)
201T	1.03	0.94	0.937	1.01	0.703	0.983	0.942	0.977	0.964	0.968	1.05	1.1	1.18	1.19	1.1	0.954	1.06	0.997	1.02	1.01
A549	1.11	0.939	0.927	0.954	0.738	0.964	0.91	0.936	0.915	0.971	0.934	0.965	1.11	0.941	0.736	0.711	0.759	0.796	0.672	0.686
A-427	1.1	0.878	0.992	0.986	0.468	1	0.94	0.933	0.988	1.01	0.982	1.02	1.12	0.902	0.844	0.833	0.838	0.927	0.857	0.882
ABC-1	1.09	0.882	0.907	1.03	0.749	0.963	0.854	0.96	0.81	0.988		1.01	1.11	0.882	0.782	0.6	0.827	1.12	0.993	0.958
BEN	0.977	1.01	0.849	1.03	0.885	1	1.02	0.891	0.926	1.02	0.992	0.938	1.14	0.965	1.07	0.779	0.927	0.807	0.934	0.986
CAL-12T	1.02	0.947	1.04	0.927	0.844	1.01	0.955	0.976	0.945	0.959	0.918	0.997	1.11	0.792	0.696	0.693	0.761	0.685	0.773	0.807
COR-L23	1.12	0.953	1.15	1.11	0.866	0.981	0.933	1.03	1.02	1.05	1.07	0.995	1.09	0.981	0.785	0.593	0.589	0.603	0.591	0.816
COR-L 105	0.782	0.811	0.776	0.794	0.574	0.968	0.817	0.959	0.961	0.96	0.76	0.863	0.914	0.824	0.695	0.63	0.728	0.751	0.773	0.715
Calu-6	1.13	0.97	0.905	0.937	0.607	1.03	0.957	1.03	1.01	1.05	1.03	1.03	1.12	0.893	0.67	0.705	0.754	0.757	0.814	0.886
ChaGo-K-1	1.03	0.882	1	0.967	0.738	0.932	1	1.03	0.959	0.97	1.04	0.928	0.947	0.872	0.735	1.19	1.09	1.13	1.06	1.22
EBC-1	1.07	0.894	0.865	1.05	0.759	0.931	0.965	1.12	0.963	1.06	0.981	1.04	1.1	0.924	0.822	0.173	0.201	0.168	0.182	0.202
EKVX	1.12	0.997	0.937	1.08	0.855	0.797	0.945	0.944	0.968	0.941	0.753	0.836	1	0.898	0.742	0.849	0.895	0.898	1.09	0.952
EMC-BAC-2	1.18	0.896	1.02	0.965	0.858	0.99	0.953	0.903	1.01	0.934	0.974	0.946	1.06	0.978	0.678	0.768	0.797	0.72	0.73	0.796
EPLC-272H	1.06	0.916	1.08	1.02	0.663	0.936	0.942	0.875	0.952	0.863	0.966	0.894	0.933	0.906	0.818	0.899	0.849	0.856	0.867	1.04
H3255	0.987	0.961	0.92	1.06	0.944	0.921	0.921	0.951	0.936	0.962	0.73	0.938	1.09	0.969	0.811	0.812	0.737	0.965	0.913	0.597
HARA	1.09	0.747	0.954	1.12	0.812	1	0.883	0.883	0.971	0.954	0.936	1.01	1.03	0.935	0.88	0.956	0.965	1.03	1.05	1.06
HCC-15	1.09	0.966	1.08	1.21	0.996	1.03	0.973	0.977	1.04	0.959	1.01	0.984	1.07	0.943	0.811	0.782	0.859	0.889	0.879	0.83
